In patent US9481659B2, “Selective heterocyclic sphingosine 1 phosphate receptor modulators” (Celgene International II SÀRL, priority 2011, dated 2016):
pEC50: −log10 of the molar value. Read-outs that look alike come from different tables or passages of the source.

Tests used:
S1P2 = biological target: T1, S1P2 (Homo sapiens, UniProt O95136); assay: Specificity over other S1P receptors: S1P2 CRE-bla CHOK1; format: cell-based; settings: S1P2 CRE-bla CHOK1, without Forskolin; read-out: S1P2 agonist value (EC50)
T1 construct: expressed in transfected cells; host or cells: CRE-bla CHOK1
Description: (§1) Cells were seeded into 384-well black wall/clear bottom plates at 10^4 cells/well/19.5 μl assay media (DMEM-phenol free, 0.5% charcoal/dextran stripped serum, 2 mM glutamine, 0.1 mM NEAA, 1 mM Na-Pyruvate, 25 mM Hepes) and incubated for 18 hrs at 37° C. in 5% CO2. Dose response curves (10-point) were generated in 10 mM Hepes, 0.1% Pluronic F127, in the presence of Forskolin. Cells were treated with 0.5 μl compound in the presence of 2 μM Forskolin for 4 hrs at 37° C. The FRET-based β-lactamase fluorescent substrate (LiveBLAzer™-FRET B/G Loading Kit CC4-AM; Invitrogen) was prepared according to manufacturer's directions, and incubated with cells for 2 hrs at room temperature. Plates were read at Ex:410/Em:458 and Ex:410/Em:522, and the response ratio determined Data was analyzed by non-linear regression to determine the EC50 for inhibition of Forskolin induced cAMP.
(§2) To assess compound specificity on other […] receptors the following cell lines were used: S1P2 CRE-bla CHOK1, S1P3-Gα15 NFAT-bla HEK293T (Invitrogen), S1P4-bla TANGO U2OS (Invitrogen), S1P5-bla TANGO U2OS (Invitrogen). The same assay set up for S1P1 was used but without Forskolin. S1P4 and S1P5 assays were performed in FreeStyle Expression medium (Invitrogen). S1P5 cells were incubated for 48 hrs in prior to treatment with compound.

S1P4 = biological target: T2, S1P4 (Homo sapiens, UniProt O95977); assay: Specificity over other S1P receptors: S1P4-bla TANGO U2OS; format: cell-based; settings: without Forskolin, read-out: S1P4 agonist value (EC50)
T2 construct: Tango fusion: TEV protease site plus GAL4-VP16 transcription factor (own knowledge of the Tango format); host or cells: U2OS (bla TANGO)
T2 sequence (O95977 1-384): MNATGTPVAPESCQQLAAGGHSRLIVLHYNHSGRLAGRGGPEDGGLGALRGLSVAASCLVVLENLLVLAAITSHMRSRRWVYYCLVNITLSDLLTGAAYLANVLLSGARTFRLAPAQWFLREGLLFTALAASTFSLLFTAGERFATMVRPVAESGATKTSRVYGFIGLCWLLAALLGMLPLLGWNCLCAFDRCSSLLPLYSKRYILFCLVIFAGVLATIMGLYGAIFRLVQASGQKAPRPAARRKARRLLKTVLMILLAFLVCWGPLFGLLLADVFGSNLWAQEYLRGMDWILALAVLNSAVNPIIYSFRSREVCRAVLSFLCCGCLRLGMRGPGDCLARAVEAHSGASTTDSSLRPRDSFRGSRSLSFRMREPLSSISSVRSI
Description: as §1, with “temperature.” for “temperature. Plates were read at Ex:410/Em:458 and Ex:410/Em:522, and the response ratio determined Data was analyzed by non-linear regression to determine the EC50 for inhibition of Forskolin induced cAMP.”
as §2

S1P3 = biological target: T3, S1P3 (Homo sapiens, UniProt Q99500); assay: Specificity over other S1P receptors: S1P3-Gα15 NFAT-bla HEK293T; format: cell-based; settings: without Forskolin, read-out: S1P3 agonist value (EC50)
T3 construct: host or cells: NFAT-bla HEK293T
Description: as §1, §2

[1] = system: CD4 or CD8 positive T cells; assay: Lymphopenia in rats; format: in vivo; settings: for inhibition in vivo at 0.2 mg/kg: po, rat, 24 h after a 0.2 mg/kg single dose; for ED50: read-out: ED50 (estimated dose needed to produce 50% lymphopenia), rat, at 24 h after a 3-5 day dosing regimen
Description: In rats: Female rats (Simonsen Laboratories, Gilroy Calif.) were housed in an ALAAC accredited facility and the research was approved by the facilities Institutional Animal Care and Use Committee (IACUC). The animals were acclimated to the laboratory for at least 5 days prior to initiation of experiments. Rats (n=3/compound/time-point) were dosed by oral gavage with 1 mg/kg compound formulated in a vehicle consisting of 5% DMSO/5% Tween 20 and 90% 0.1N HCL. Control rats were dosed PO with the vehicle. Whole blood was collected from isoflurane anesthetized rats via the retro-orbital sinus and terminal samples were collected by cardiac puncture into EDTA. Whole blood was incubated with mouse anti-rat CD32 (BD #550271), PE-mouse anti-rat CD45R/B220 (BD #554881), PECy5-mouse anti-rat CD4 (BD #554839), and APC-mouse anti-rat CD8a (eBioscience #17-0084) for 30 minutes on ice. Red blood cells were lysed using BD Pharm Lyse Lysing buffer (#555899) and white blood cells were analyzed with a BD FACSArray. Lymphopenia was expressed as the % of white blood cells that were CD4 or CD8 positive T cells. The overall lymphopenia response over 24 h was estimated by calculating the area under the effect curve (AUEC) using the linear trapezoidal rule. In some experiments, total lymphocyte counts were determined using a standard impedance based veterinary hematology analyzer (IDEXX Preclinical Research Services, Sacramento, Calif.).
The percentage of lymphopenia at 24 h after a 0.2 mg/kg single dose regiment is reported. […] N/A is not available.

S1P5 = biological target: T4, S1P5 (Homo sapiens, UniProt Q9H228); assay: Specificity over other S1P receptors: S1P5-bla TANGO U2OS; format: cell-based; settings: without Forskolin, read-out: S1P5 agonist value (EC50)
T4 construct: Tango fusion: TEV protease site plus GAL4-VP16 transcription factor (own knowledge of the Tango format); host or cells: U2OS (bla TANGO)
Description: as §1, with “temperature.” for “temperature. Plates were read at Ex:410/Em:458 and Ex:410/Em:522, and the response ratio determined Data was analyzed by non-linear regression to determine the EC50 for inhibition of Forskolin induced cAMP.”
as §2

S1P1/EDG1 = S1P1/EDG1 (Homo sapiens, UniProt P21453); assay: S1P1 CRE-bla CHOK1 reporter assay, inhibition of Forskolin induced cAMP; format: cell-based; settings: S1P1 CRE-bla CHOK1 cells, 2 μM Forskolin
Procedure, shortened: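 CRE-bla CHO K1 cells stably expressing human S1P1 were treated 4 hrs at 37° C with 10-point compound dilutions plus 2 μM Forskolin. Inhibition of cAMP-driven β-lactamase reporter was read with a FRET substrate loaded 2 hrs at room temperature.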

[2] = read-out: S1P1 agonist value (EC50)
[3] = agonist activity range, read-out: S1P1 ACTIVITY

T4 sequence (Q9H228 whole entry, the tested form may be a part): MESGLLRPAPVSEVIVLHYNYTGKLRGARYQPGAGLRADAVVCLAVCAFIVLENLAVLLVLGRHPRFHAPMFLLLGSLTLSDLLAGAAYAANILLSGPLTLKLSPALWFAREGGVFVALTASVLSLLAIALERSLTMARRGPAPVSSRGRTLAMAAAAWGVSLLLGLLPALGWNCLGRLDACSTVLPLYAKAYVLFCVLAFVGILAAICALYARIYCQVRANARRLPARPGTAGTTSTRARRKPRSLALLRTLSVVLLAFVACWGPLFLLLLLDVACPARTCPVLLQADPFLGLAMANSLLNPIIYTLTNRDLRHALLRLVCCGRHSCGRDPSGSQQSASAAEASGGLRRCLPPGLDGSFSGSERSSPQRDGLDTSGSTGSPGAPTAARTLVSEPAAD
T3 sequence (Q99500 whole entry): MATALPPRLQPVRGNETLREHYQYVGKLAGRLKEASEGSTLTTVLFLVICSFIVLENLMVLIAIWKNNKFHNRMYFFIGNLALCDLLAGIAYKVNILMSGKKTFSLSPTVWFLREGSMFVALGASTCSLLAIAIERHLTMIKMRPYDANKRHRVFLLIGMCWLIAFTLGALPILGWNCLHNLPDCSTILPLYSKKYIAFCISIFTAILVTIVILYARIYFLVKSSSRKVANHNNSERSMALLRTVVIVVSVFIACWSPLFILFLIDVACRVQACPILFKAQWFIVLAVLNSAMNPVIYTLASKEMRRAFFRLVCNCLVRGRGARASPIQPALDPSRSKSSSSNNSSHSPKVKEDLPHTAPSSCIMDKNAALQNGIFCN
S1P1/EDG1, sequence (P21453 whole entry): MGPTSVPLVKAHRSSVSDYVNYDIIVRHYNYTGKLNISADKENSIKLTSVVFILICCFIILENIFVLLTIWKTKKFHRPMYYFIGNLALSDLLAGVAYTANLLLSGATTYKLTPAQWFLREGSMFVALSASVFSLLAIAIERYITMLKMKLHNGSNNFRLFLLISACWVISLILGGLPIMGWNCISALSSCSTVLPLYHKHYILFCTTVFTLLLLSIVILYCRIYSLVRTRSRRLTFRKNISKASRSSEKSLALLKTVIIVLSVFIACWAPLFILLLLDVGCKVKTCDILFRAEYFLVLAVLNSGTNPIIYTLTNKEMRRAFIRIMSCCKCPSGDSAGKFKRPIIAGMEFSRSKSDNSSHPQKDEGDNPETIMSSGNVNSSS
T1 sequence (O95136 whole entry, species assumed): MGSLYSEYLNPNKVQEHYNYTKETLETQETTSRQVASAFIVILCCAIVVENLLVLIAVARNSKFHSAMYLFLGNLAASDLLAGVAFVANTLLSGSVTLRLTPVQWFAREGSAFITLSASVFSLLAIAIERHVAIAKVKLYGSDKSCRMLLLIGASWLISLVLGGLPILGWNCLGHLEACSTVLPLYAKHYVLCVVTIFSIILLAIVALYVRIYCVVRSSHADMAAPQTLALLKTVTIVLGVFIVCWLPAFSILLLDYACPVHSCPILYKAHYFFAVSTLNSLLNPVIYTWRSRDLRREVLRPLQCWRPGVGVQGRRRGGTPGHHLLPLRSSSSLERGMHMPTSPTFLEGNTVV

SMILES | pEC50 (S1P2) | pEC50 (S1P4) | pEC50 (S1P3) | inhibition in vivo at 0.2 mg/kg [1] | pEC50 (S1P5) | pEC50 (S1P1/EDG1; [2]) | pEC50 (S1P1/EDG1; [3]) | ED50 [1]
CC(C)Oc1ccc(-c2nnc(-c3cccc4c3CCC4NS(=O)(=O)CC(=O)N(C)C)s2)cc1C#N (stereo in doubt) [Compound 43, (R)-2-(N-(4-(5-(3-cyano-4-isopropoxyphenyl)-1,3,4-thiadiazol-2-yl)-2,3-dihydro-1H-inden-1-yl)sulfamoyl)-N,N-dimethylacetamide] | < 5.00 | < 5.00 | < 5.00 | 40% |  |  |  | 
CC(C)Oc1ccc(-c2nnc(-c3cccc4c3CCC4NS(=O)(=O)CCO)s2)cc1C#N (stereo in doubt) [Compound 46, (R)—N-(4-(5-(3-cyano-4-isopropoxyphenyl)-1,3,4-thiadiazol-2-yl)-2,3-dihydro-1H-inden-1-yl)-2-hydroxyethanesulfonamide] | < 5.00 |  | < 5.00 | 39% |  |  |  | 
CC(C)Oc1ccc(-c2nnc(-c3cccc4c3CC[C@H]4NC(=O)N3CC[C@@H](N(C)C)C3)s2)cc1C#N [Compound 56, (R)—N—((R)-4-(5-(3-cyano-4-isopropoxyphenyl)-1,3,4-thiadiazol-2-yl)-2,3-dihydro-1H-inden-1-yl)-3-(dimethylamino)pyrrolidine-1-carboxamide] | < 5.00 | < 5.00 | < 5.00 | 52% | 6.86 | 9.49 | 9.30 to 10.30 | 
CC(C)Oc1ccc(-c2nnc(-c3cccc4c3CC[C@H]4NC(=O)N3CCOCC3)s2)cc1C#N [Compound 58, (R)—N-(4-(5-(3-cyano-4-isopropoxyphenyl)-1,3,4-thiadiazol-2-yl)-2,3-dihydro-1H-inden-1-yl)morpholine-4-carboxamide] | < 5.00 | < 5.00 |  |  |  |  | 9.30 to 10.30 | 
CC(C)Oc1ccc(-c2ncc(-c3cccc4c3CC[C@H]4NS(N)(=O)=O)s2)cc1C#N [Compound 166, (R)—N-(4-(2-(3-cyano-4-isopropoxyphenyl)thiazol-5-yl)-2,3-dihydro-1H-inden-1-yl)sulfamide] | 5.07 | 6.13 | < 5.00 | 47% | 7.19 | 9.85 | 9.30 to 10.30 | 0.07 mg/kg
CC(C)Oc1ccc(-c2ncc(-c3cccc4c3CC[C@H]4NC(=O)N3CCCC3)s2)cc1C#N [Compound 172, (R)—N-(4-(2-(3-cyano-4-isopropoxyphenyl)thiazol-5-yl)-2,3-dihydro-1H-inden-1-yl)pyrrolidine-1-carboxamide] | < 5.00 | < 5.00 | < 5.00 | 22% | 6.69 | 9.72 | 9.30 to 10.30 | 0.2 mg/kg
CC(C)Oc1ccc(-c2ncc(-c3cccc4c3CC[C@H]4NC(=O)N3CCOCC3)s2)cc1C#N [Compound 186, (R)—N-(4-(2-(3-cyano-4-isopropoxyphenyl)thiazol-5-yl)-2,3-dihydro-1H-inden-1-yl)morpholine-4-carboxamide] | < 5.00 | < 5.00 |  |  |  |  | 9.30 to 10.30 | 
